# Tests used:
# Test in all cases: relative viability (nuclei count vs DMSO), 5 days (fraction); higher = more cells survive
# [1] = system: BEN
# Procedure, shortened: (§1)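 Nuclei were stained with Hoechst during a one-step fixation (final 0.05% Triton X-100, 1% formaldehyde, 1 ug/ml Hoechst) carried out 5 days after dosing, then counted on 4× images. The cells, lung cancer lines in 1536-well plates, had been dosed by pin tool the day after seeding with one drug alone or a fixed anchor-drug dose plus five library-drug doses (not always all listed) in √10 steps. Relative viability is the nuclei count in treated wells divided by that in vehicle wells, and each value is the median of duplicate plates.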
# [2] = system: COR-L23
# Procedure, shortened: as §1
# [3] = system: LK-2
# Procedure, shortened: as §1
# [4] = system: NCI-H2087
# Procedure, shortened: as §1
# [5] = system: NCI-H1650
# Procedure, shortened: as §1
# [6] = system: NCI-H2126
# Procedure, shortened: as §1
# [7] = system: NCI-H2347
# Procedure, shortened: as §1
# [8] = system: LCLC-103H
# Procedure, shortened: as §1
# [9] = system: SW 900
# Procedure, shortened: as §1
# [10] = system: NCI-H460
# Procedure, shortened: as §1
# [11] = system: LXF-289
# Procedure, shortened: as §1
# [12] = system: NCI-H441
# Procedure, shortened: as §1
# [13] = system: NCI-H1651
# Procedure, shortened: as §1
# [14] = system: EKVX
# Procedure, shortened: as §1
# [15] = system: EMC-BAC-2
# Procedure, shortened: as §1
# [16] = system: NCI-H596
# Procedure, shortened: as §1
# [17] = system: 201T
# Procedure, shortened: as §1
# [18] = system: NCI-H1793
# Procedure, shortened: as §1
# [19] = system: HCC-827
# Procedure, shortened: as §1
# [20] = system: NCI-H1915
# Procedure, shortened: as §1
# [21] = system: EPLC-272H
# Procedure, shortened: as §1
# [22] = system: NCI-H358
# Procedure, shortened: as §1
# [23] = system: SW 1573
# Procedure, shortened: as §1
# [24] = system: A-427
# Procedure, shortened: as §1
smiles,measurement,setting,value
CCCCCCCCCCCC1=C(O)C(=O)C=C(O)C1=O [Embelin] + Cc1nc(Nc2ncc(C(=O)Nc3c(C)cccc3Cl)s2)cc(N2CCN(CCO)CC2)n1 [Dasatinib] (partner 0.075 µM),relative viability,[1]; first compound 0.08 µM,0.355
same,relative viability,[1]; first compound 0.8 µM,0.359
same,relative viability,[1]; first compound 2.53 µM,0.259
same,relative viability,[1]; first compound 8 µM,0.362
same,relative viability,[2]; first compound 0.08 µM,0.486
same,relative viability,[2]; first compound 0.8 µM,0.55
same,relative viability,[2]; first compound 2.53 µM,0.458
same,relative viability,[2]; first compound 8 µM,0.562
same,relative viability,[3]; first compound 0.08 µM,0.26
same,relative viability,[3]; first compound 0.8 µM,0.427
same,relative viability,[3]; first compound 2.53 µM,0.304
same,relative viability,[3]; first compound 8 µM,0.237
same,relative viability,[4]; first compound 0.08 µM,0.877
same,relative viability,[4]; first compound 0.8 µM,1.19
same,relative viability,[4]; first compound 2.53 µM,1.06
same,relative viability,[4]; first compound 8 µM,0.913
same,relative viability,[5]; first compound 0.08 µM,0.348
same,relative viability,[5]; first compound 0.8 µM,0.408
same,relative viability,[5]; first compound 2.53 µM,0.337
same,relative viability,[5]; first compound 8 µM,0.315
same,relative viability,[6]; first compound 0.08 µM,0.615
same,relative viability,[6]; first compound 0.8 µM,0.684
same,relative viability,[6]; first compound 2.53 µM,0.714
same,relative viability,[6]; first compound 8 µM,0.502
same,relative viability,[7]; first compound 0.08 µM,0.332
same,relative viability,[7]; first compound 0.8 µM,0.33
same,relative viability,[7]; first compound 2.53 µM,0.296
same,relative viability,[7]; first compound 8 µM,0.309
same,relative viability,[8]; first compound 0.08 µM,0.453
same,relative viability,[8]; first compound 0.8 µM,0.517
same,relative viability,[8]; first compound 2.53 µM,0.511
same,relative viability,[8]; first compound 8 µM,0.405
same,relative viability,[9]; first compound 0.08 µM,0.666
same,relative viability,[9]; first compound 0.8 µM,0.571
same,relative viability,[9]; first compound 2.53 µM,0.546
same,relative viability,[9]; first compound 8 µM,0.57
same,relative viability,[10]; first compound 0.08 µM,0.58
same,relative viability,[10]; first compound 0.8 µM,0.57
same,relative viability,[10]; first compound 2.53 µM,0.571
same,relative viability,[10]; first compound 8 µM,0.416
same,relative viability,[11]; first compound 0.08 µM,0.212
same,relative viability,[11]; first compound 0.8 µM,0.282
same,relative viability,[11]; first compound 2.53 µM,0.163
same,relative viability,[11]; first compound 8 µM,0.222
same,relative viability,[12]; first compound 0.08 µM,0.645
same,relative viability,[12]; first compound 0.8 µM,0.633
same,relative viability,[12]; first compound 2.53 µM,0.686
same,relative viability,[12]; first compound 8 µM,0.838
same,relative viability,[13]; first compound 0.08 µM,0.388
same,relative viability,[13]; first compound 0.8 µM,0.508
same,relative viability,[13]; first compound 2.53 µM,0.438
same,relative viability,[13]; first compound 8 µM,0.335
same,relative viability,[14]; first compound 0.08 µM,0.564
same,relative viability,[14]; first compound 0.8 µM,0.724
same,relative viability,[14]; first compound 2.53 µM,0.576
same,relative viability,[14]; first compound 8 µM,0.555
same,relative viability,[15]; first compound 0.08 µM,0.304
same,relative viability,[15]; first compound 0.8 µM,0.46
same,relative viability,[15]; first compound 2.53 µM,0.341
same,relative viability,[15]; first compound 8 µM,0.291
same,relative viability,[16]; first compound 0.08 µM,0.739
same,relative viability,[16]; first compound 0.8 µM,0.739
same,relative viability,[16]; first compound 2.53 µM,0.708
same,relative viability,[16]; first compound 8 µM,0.457
same,relative viability,[17]; first compound 0.08 µM,0.562
same,relative viability,[17]; first compound 0.8 µM,0.641
same,relative viability,[17]; first compound 2.53 µM,0.519
same,relative viability,[17]; first compound 8 µM,0.613
same,relative viability,[18]; first compound 0.08 µM,0.397
same,relative viability,[18]; first compound 0.8 µM,0.432
same,relative viability,[18]; first compound 2.53 µM,0.446
same,relative viability,[18]; first compound 8 µM,0.334
same,relative viability,[19]; first compound 0.08 µM,0.333
same,relative viability,[19]; first compound 0.8 µM,0.406
same,relative viability,[19]; first compound 2.53 µM,0.404
same,relative viability,[19]; first compound 8 µM,0.321
same,relative viability,[20]; first compound 0.08 µM,0.309
same,relative viability,[20]; first compound 0.8 µM,0.361
same,relative viability,[20]; first compound 2.53 µM,0.321
same,relative viability,[20]; first compound 8 µM,0.335
same,relative viability,[21]; first compound 0.08 µM,0.393
same,relative viability,[21]; first compound 0.8 µM,0.469
same,relative viability,[21]; first compound 2.53 µM,0.442
same,relative viability,[21]; first compound 8 µM,0.277
same,relative viability,[22]; first compound 0.08 µM,0.205
same,relative viability,[22]; first compound 0.8 µM,0.136
same,relative viability,[22]; first compound 2.53 µM,0.171
same,relative viability,[22]; first compound 8 µM,0.162
same,relative viability,[23]; first compound 0.08 µM,0.406
same,relative viability,[23]; first compound 0.8 µM,0.637
same,relative viability,[23]; first compound 2.53 µM,0.458
same,relative viability,[23]; first compound 8 µM,0.725
same,relative viability,[24]; first compound 0.08 µM,0.689
same,relative viability,[24]; first compound 0.8 µM,0.805
same,relative viability,[24]; first compound 2.53 µM,0.689
same,relative viability,[24]; first compound 8 µM,0.727
